Patent US20190353644A1, “PROFILE ANALYSIS OF CELL POLARITY” (Wake Forest University Health Sciences, priority 2018, published 2019)

What was measured:
live S1 cell acini = test: Live cell imaging of acini stained with SiR-actin; assay type: cell-based; details: leptin treatment as in EXAMPLE 3
Text: RadialProfiler can be applied to quantify epithelial markers detected by immunofluorescence (as described in Tenvooren et al., Oncogene (2019)), or to quantify cortical actin labeled in live acini with the SiR-actin dye (Cytoskeleton Inc.). DAPI and Hoechst are used to counterstain cell nuclei in fixed and live experiments, respectively.
For imaging, an automated IX83 microscope (Olympus) equipped with a motorized ultrasonic stage and a TruFocus Z drift compensation module was used. For RadialProfiler analyses, images are taken with either 10× (NA=0.3) or 20× (NA=0.45) air lenses, using a sCMOS camera (ORCA-Flash4.0, Hamamatsu). The RadialProfiler software was also tested with images acquired using different imaging systems, including a high content imager (Perkin Elmer Operetta CLS). RadialProfiler and the underlying approach to analyze polarity are agnostic to the imaging system. Fields of view are chosen either in an automated fashion or based on nuclear signals (DAPI or Hoechst) to avoid bias. For live cell analyses, acini are maintained at 37° C. and 5% CO2 using a stage-top incubator (Tokai Hit). The minimal resolution needed depends on the number of radial terraces used by RadialProfiler. […] It was determined that using 5-10 bins that are 2 pixels wide yields accurate measurements. […]

[1] = system: HMT-3522 S1 mammary epithelial cells acini; test: Visual scoring of apical polarity markers in 3D acini cultures (conventional methods); assay type: cell-based; details: elevated levels of leptin; measured with conventional methods (Tenvooren et al.)
Text: Non-neoplastic HMT-3522 S1 mammary epithelial cells were obtained from Dr. Mina Bissell (Lawrence Berkeley Laboratory) and propagated between passages 54 and 60 in H14 medium. Acinar differentiation was achieved by culturing the cells in 3D on top of a layer of Matrigel matrix (Corning) in chambered slides (Millipore), as described (10).
Fluorescent signals of polarity markers in 3D cell cultures were scored visually for apical localization using an Olympus IX83 epifluorescence microscope equipped with a 60× oil immersion objective (NA=1.35). At least 100 acini were scored per condition in each experiment. Alternatively, fluorescence images were taken with the CMOS camera (Hamamatsu, ORCA-Flash4.0) on this microscope, using a 10× (NA=0.3) objective. The ImageJ script was used to extract acini from DAPI images and to calculate the radial distribution of the signals. 150-450 acini were analyzed per condition.

[2] = system: HMT-3522 S1 mammary epithelial cells acini; test: Radial profile (RP) analysis of ZO-1 distribution in acini; assay type: cell-based
Description: The concept of radial profile (RP) analysis of epithelial polarity was tested. A macro script and two plugins for the open image analysis software ImageJ (imagej.nih.gov/ij/) were developed. Subsequently, computer code was translated for the MATLAB® computing platform and improvements were made. This new code is referred to as the RadialProfiler algorithm. MATLAB® is a more robust and versatile computing platform that allows important improvement to the approach. In particular, MATLAB® can easily process entire image folders in batch using looping functions. Batch processing has been included in the new MATLAB® version of the RP analysis that enables automated analyses of series of images. The code was designed to analyze two-channel fluorescence microscopy images. The first channel corresponds to DAPI staining of cell nuclei, whereas the second channel corresponds to an apical polarity marker (e.g., ZO-1, Par3, or actin) detected by immunofluorescence. […] Initially, two plugins were developed to compare two approaches to quantify apical polarity: (1) an analysis of the RP distribution of the signals and (2) the computation of the moment of inertia (MOI). […]
Fluorescent signals of polarity markers in 3D cell cultures were scored visually for apical localization using an Olympus IX83 epifluorescence microscope equipped with a 60× oil immersion objective (NA=1.35). […]

[3] = system: mammary epithelial cell line stably expressing GFP-ZO-1; test: Live cell imaging of GFP-ZO-1 mammary epithelial cell line; assay type: cell-based; details: leptin treatment
Text: Immunostaining techniques have certain limitations, including (1) time consumption, (2) costs of reagents, and (3) poor time resolution. An alternative approach has been developed based on live cell imaging. Immunostaining for polarity markers is replaced by expression of polarity marker proteins tagged with a fluorescent protein (e.g., GFP-ZO-1). A mammary epithelial cell line stably expressing GFP-ZO-1 has been generated and characterized (FIGS. 9A-9B). The cell line retains apical-basal polarity (which is disturbed by leptin treatment) and expresses the recombinant marker at physiological levels. As a more flexible alternative to genetically encoded fluorescent markers of polarity, a nontoxic actin dye compatible with live cell imaging (SiR-actin) has been used. Cells are stained for 1 h with a mix of SiR-actin and Hoechst (DNA dye) before imaging. Similar results were obtained with this approach compared to the fixed, immunostaining approach described in EXAMPLE 1.

apical polarity = details: Yue et al., Biophys. J. 102:1215 (2012); cited from earlier work

leptin
apical SiR-actin signal (live S1 cell acini): loss of apical SiR-actin signal | apical polarity [1]: loss of apical polarity | averaged RP curves and integrated values (ZO-1 radial distribution) ([2]; acini treated 72 h with vehicle or leptin (100 ng/ml), FIG. 8C, P<0.0001): distinct for the two treatments | apical-basal polarity of GFP-ZO-1 cell line [3]: disturbed

lipopolysaccharide [LPS, reference compound]
polarity score ([2]; breast acini exposed to LPS, FIG. 8F): decrease in the polarity score

omega-6 fatty acids
apical polarity (apical polarity): disrupted
